Series [1] deals with cancer-related stem cells. Nature of the series: MTT cell viability after chemical treatment, cancer-related stem cells vs non-cancer-related stem cells. Format: cell-based, human. Particulars: MTT survival fraction; p<0.01. The method, then:
Cells were seeded on 24-well plates at a density of 2×10^4 cells/well in medium, after post-chemical therapy 24 hours, then followed and analyzed by the MTT assay (Sigma-Aldrich Co.). The amount of MTT formazon product was determined by measuring the absorbance at 560 nm (SpectraMax 250, Molecular Devices, Sunnyvale, Calif., USA). The drugs for chemotherapy are consisted of visplatin, VP-16, doxorubicin, or paclitaxel.

For series [2], the system named is AT/RT-CD133+ cells. Nature of the series: MTT assay of cell viability/proliferation in AT/RT-CD133+. Format: cell-based, human. Further details: anti-cancer proliferation effect of single agent chemotherapy with addition of RV: dose or concentration left out as unconfirmed. Particulars: for resistance of CD133+ to chemotherapeutic agent compared with CD133-: AT/RT cells, p<0.01. The method, then:
(§1) This research followed the tenets of the Declaration of Helsinki and all samples were obtained after patients had given informed consent. Dissociated cells from the samples of brain tumors from AT/RT patients were labeled with 1 ml CD133/1 micromagnetic beads per million cells using a CD133 cell isolation kit (MACS, Miltenyi Biotec). CD133^+ cells were cultured in serum-free DMEM/F12 (GIBCO) medium supplemented with N2 supplement (R&D), 10 ng/ml human recombinant bFGF (R&D) and 10 ng/ml EGF. Gamma radiation was delivered by a Theratronic cobalt unit T-1000 (Theratronic Internation, Inc., Ottawa, Canada) at a dose rate of 1.1 Gy/min (SSD=57.5 cm). For evaluation of cell proliferation, cells were seeded on 24-well plates at a density of 2×10^4 cells/well in medium, followed by the methyl thiazol tetrazolium assay (MTT assay; Sigma-Aldrich Co.). The amount of MTT formazan product was determined using a microplate reader and an absorbance of 560 nm (SpectraMax 250, Molecular Devices, Sunnyvale, Calif., USA).

The test system of the next series is AT/RT CD133- cells. Nature of the series: MTT assay of proliferation in AT/RT CD133-. Format: cell-based, human. On the set-up: dose or concentration left out as unconfirmed. Particulars: RV for 72 h. The method, then: as §1
(Tetrazolium dyes change colour on reduction, which living cells bring about.)

The subject of series [3] is AT/RT-CD133+ xenotransplant. Nature of the series: Xenotransplanted tumorigenicity analysis of AT/RT cells in SCID mice. Format: in vivo, SCID mice (BALB/c strain). On the procedure: All procedures involving animals were in accordance with the institutional animal welfare guideline of Taipei Veterans General Hospital. […] Tumor size was measured using calipers and the volume was calculated according to the formula: (length×width^2)/2 and then analyzed using Image Pro-plus software.

The subject of another series is ATRT-CD133+ cells. Nature of the series: Percentage of CD133-positive cells in ATRT-CD133+. Format: cell-based, human. Further details: dose or concentration left out as unconfirmed. The following applies: RV for 3 days.
In series [4] the test system is AT/RT-CD133+ cells. Nature of the series: Transwell migration/invasion and soft agar colony formation, AT/RT-CD133+. Type of series: cell-based, human. On the set-up: migration/invasion: dose or concentration left out as unconfirmed. Particulars: compared with IR treatment alone. On the procedure:
(§2) The 24-well plate Transwell® system with a polycarbonate filter membrane of 8-μm pore size (Corning, United Kingdom) was used. Cell suspensions were seeded in the upper compartment of the Transwell® chamber at a density of 1×10^5 cells in 100 μl serum-free medium. After 24 hours, the filter membrane was fixed in 4% formalin for 1 hour. The opposite surface of the filter membrane was stained with Hoechst 33342 for 3 min. The soft agar assay was performed as follows. The bottom of each well (35 mm) of a six-well culture dish was coated with 2 ml agar mixture (DMEM, 10% (v/v) FCS, 0.6% (w/v) agar). After the bottom layer solidified, 2 ml top agar-medium mixture (DMEM, 10% (v/v) FCS, 0.3% (w/v) agar) containing 2×10^4 cells was added, and dishes were incubated at 37° C. for 4 weeks. The plates were stained with 0.5 ml 0.005% Crystal Violet for 1 hour, and then the number of colonies was counted using a microscope.

A further series concerns AT/RT-CD133+/- cells. Nature of the series: Apoptosis (annexin V, caspase 3, TUNEL) in AT/RT-CD133+/-. Format: cell-based, human. Further details: apoptosis induction: dose or concentration left out as unconfirmed. The method, then:
The activities of caspases-8 and -3 were determined by ELISA kit (Medical & Biological Laboratories Co., Ltd, Nagoya, Japan) and quantified by reading at 490 nm (MRX; Dynatech Laboratories, Chantilly, Va., U.S.A.). Each individual sample was analyzed in triplicate. Furthermore, apoptotic cells were identified by the terminal dUTP nick-end labeling (TUNEL) method (In situ Cell Death Detection Kit, POD, Roche Boehringer Mannheim Corp., Ind., U.S.A.). Briefly, cells with cover slips were washed with 1× phosphate-buffered saline (PBS), fixed with 4% of paraformaldehyde for 10 min, permeabilized with 0.1% of Triton X-100 for 5 min, and incubated with the TUNEL reagent provided for 1 h. Chromogenic development was then applied using 3-amino-9-ethyl-carbazole, and slides were counterstained using H&E.

Series [5] relates to MB-CSCs (medulloblastoma cancer stem-like cells). Nature of the series: MTT assay of cell viability in MB-CSCs. Type of series: cell-based, human. The method, then:
Dissociated cells from the samples of medulloblastoma patients were cultured in serum-free DMEM/F12 (GIBCO) medium supplemented with N2 supplement (R&D), 10 ng/ml human recombinant bFGF (R&D) and 10 ng/ml EGF. Gamma radiation was delivered by a Theratronic cobalt unit T-1000 (Theratronic Internation, Inc., Ottawa, Canada) at a dose rate of 1.1 Gy/min (SSD=57.5 cm). For evaluation of cell proliferation, cells were seeded on 24-well plates at a density of 2×10^4 cells/well in medium, followed by the methyl thiazol tetrazolium assay (MTT assay; Sigma-Aldrich Co.).

A further series concerns parental MB cells. Nature of the series: MTT assay of cell viability in parental MB cells. Format: cell-based, human. The following applies: 50 μM RV, serum-condition culture. On the procedure:
Gamma radiation was delivered by a Theratronic cobalt unit T-1000 (Theratronic Internation, Inc., Ottawa, Canada) at a dose rate of 1.1 Gy/min (SSD=57.5 cm). For evaluation of cell proliferation, cells were seeded on 24-well plates at a density of 2×10^4 cells/well in medium, followed by the methyl thiazol tetrazolium assay (MTT assay; Sigma-Aldrich Co.).

The test system of a further series is MB-CSCs. Nature of the series: Migration/invasion and tumor colony formation, MB-CSCs. Type of series: cell-based, human. The following applies: 100 μM RV alone or combined with 2 Gy IR, compared with IR (2 Gy) alone. The method, then:
as §2

A further series concerns iPS and ES cells. Nature of the series: Osteogenic differentiation of iPS and ES cells (Alizarin red, real-time RT-PCR). Type of series: cell-based. On the procedure: For osteogenic induction, ES or iPS cells were cultured in DMEM-LG (Invitrogen) supplemented with 50 μg·ml^−1 ascorbate-2 phosphate, 10 nmol·L^−1 dexamethasone, and 10 mmol·L^−1 β-glycerophosphate (Sigma, St. Louis, Mo.) for 2 weeks. At the end of osteogenic induction, cells were washed twice with PBS, fixed for 10 min at room temperature with 3.7% paraformaldehyde, and stained with von Kossa stain and Alizarin red to assess osteogenic differentiation.
Real-time RT-PCR was performed as previously described. Briefly, total RNA (1 μg) of each sample was reverse-transcribed using 0.5 μg oligo dT and 200 U Superscript II RT (Invitrogen). The amplification was carried out in a total volume of 20 μl containing 0.5 μmol·L^−1 of each primer, 4 mmol·L^−1 MgCl2, 2 μl LightCycler™-FastStart DNA Master SYBR green I (Roche Molecular Systems, Alameda, Calif.) and 2 μl of 1:10 diluted cDNA. PCR reactions were prepared in duplicate and performed using the following program: 95° C. for 10 min, followed by 40 cycles of denaturation at 95° C. for 10 sec. annealing at 55° C. for 5 sec. and extension at 72° C. for 20 sec. Standard curves (cycle threshold values versus template concentration) were prepared for each target gene and for the endogenous reference gene (GAPDH) for each sample. Quantification of unknown samples was performed using LightCycler Relative Quantification Software version 3.3 (Roche).
(In qPCR the cycle at which signal appears reflects the starting amount.)

The next series deals with transplanted iPS cells. Nature of the series: In vivo osteogenic differentiation and teratoma formation of iPS cells transplanted to nude mice. On the set-up: species or system nude mice (BALB/c strain).

Molecules are shown by their SMILES.

As to `N.N.[Cl][Pt][Cl]` [cisplatin], the “resistance of cancer-related stem cell to chemotherapeutic agent compared with non-cancer-related stem cell” value in series [1] is listed as “significantly resistant”. The “resistance of CD133+ to chemotherapeutic agent compared with CD133-” value (“resistance of CD133+ … compared with CD133-” below) in the series on AT/RT-CD133+ cells [2] is “significantly resistant”.

`COc1cccc2c1C(=O)c1c(O)c3c(c(O)c1C2=O)C[C@@](O)(C(=O)CO)C[C@@H]3O[C@H]1C[C@H](N)[C@H](O)[C@H](C)O1` [doxorubicin]: the “resistance of cancer-related stem cell to chemotherapeutic agent compared with non-cancer-related stem cell” value in series [1] is “significantly resistant”. Moreover, in the series with AT/RT-CD133+ cells [2], the “resistance of CD133+ … compared with CD133-” value is “significantly resistant”.

With `COc1cc([C@@H]2c3cc4c(cc3[C@@H](O[C@@H]3O[C@@H]5CO[C@@H](C)O[C@H]5[C@H](O)[C@H]3O)[C@H]3COC(=O)[C@H]23)OCO4)cc(OC)c1O` [VP16, etoposide], the “resistance of cancer-related stem cell to chemotherapeutic agent compared with non-cancer-related stem cell” value in [1] is reported as “significantly resistant”. Moreover, in the series on AT/RT-CD133+ cells [2], the “resistance of CD133+ … compared with CD133-” value is on record as “significantly resistant”.

For the molecule `CC(=O)O[C@H]1C(=O)[C@@]2(C)[C@H]([C@H](OC(=O)c3ccccc3)[C@]3(O)C[C@H](OC(=O)[C@H](O)[C@@H](NC(=O)c4ccccc4)c4ccccc4)C(C)=C1C3(C)C)[C@]1(OC(C)=O)CO[C@@H]1C[C@@H]2O` [paclitaxel], the “resistance of cancer-related stem cell to chemotherapeutic agent compared with non-cancer-related stem cell” value in series [1] is “significantly resistant”.

For the molecule `Oc1ccc(/C=C/c2cc(O)cc(O)c2)cc1` [resveratrol, 3,4′,5-tri-hydroxy-trans-stilbene], in the series on AT/RT-CD133+ cells [2] (200 mM RV for 48 and 72 h), the “total number and growth rates of CD133+” value is recorded as “significantly decreased”. Besides, the “morphology of spheroidlike CD133+” value with AT/RT-CD133+ cells [2] (200 mM RV, 48 h) was “detached from clusters and became a single suspension”. The “reduction of viability of CD133+” value is given as 20-25% in the series on AT/RT-CD133+ cells [2] (RV 100 mM) and “about 40%” in the series with AT/RT-CD133+ cells [2] (RV for 72 h). Further, the “anti-cancer proliferation effect of single agent chemotherapy with addition of RV” value with AT/RT-CD133+ cells [2] (RV added to cisplatin, VP-16, ATRT-CD133+/-) is reported as “significantly improved”. Further, the cell viability entry in the series with AT/RT-CD133+ cells [2] (RV lower than 50 mM, 24, 48, and 72 h, p>0.05) was “not significantly affected”. Besides, the “proliferation and growth of CD133-” value with AT/RT CD133- cells was “totally block”. Besides, the “tumor formation in transplanted SCID mice” value in series [3] (1,000 AT/RT-CD133+ treated with 200 mM RV for 72 h, within 6 weeks after inoculation) was “did not form tumors”. In addition, in [3] (CD133+ and 150 mM RV/IR vs untreated or only IR-treated CD133+, p<0.01), the “mean survival times (Kaplan-Meier)” value is recorded as “significantly prolonged”. Further, the tumor volumes result in series [3] (CD133+ treated by RV/IR vs CD133+ or CD133+ treated with only IR, p<0.01) is listed as “significantly decreased”. The tumor formation entry in [3] (RV-treated CD133- group) is “no tumor formation”. The “percentage of CD133-positive cells in ATRT-CD133+” value in the series with ATRT-CD133+ cells is “decrease”. Further, the tumor colony formation entry in the series with AT/RT-CD133+ cells [4] (150 mM RV alone or combined with IR) and with MB-CSCs was “significantly inhibited” each time. Moreover, the migration/invasion entry in the series on AT/RT-CD133+ cells [4] (RV alone or combined with IR) and with MB-CSCs was “significantly inhibited” each time. Besides, the “IR (2 Gy)-mediated apoptotic activity” value with AT/RT-CD133+/- cells (RV plus IR 2 Gy, TUNEL) is recorded as “increase”. In addition, the apoptosis induction result in the series on AT/RT-CD133+/- cells (RV, 72 h, annexin V, caspase 3, TUNEL) is listed as “induce apoptosis”. In [5] (100 μM RV, 48 hours), the “morphology of spheroid-like MB-CSCs” value was “detached and became a single-suspension”. Moreover, in series [5] (100 μM RV, p<0.01), the “treatment effect of IR-2 Gy on MB-CSCs with addition of RV” value was “significantly improved”. In [5] (150 μM RV for 48 h, p<0.001), the “total cell number and growth rates of MB-CSCs” value was “significantly decreased”. In addition, the “reduction of viability of MB-CSCs” value in series [5] (RV 100 μM) is recorded as 40-45%. Further, in series [5] (RV lower than 50 μM, 48 hours, p>0.05), the “cell viability of MB-CSC” value was “not significantly affected”. Besides, in the series with parental MB cells, the “cell viability of parental MB cells” value is given as “moderately affected”. The “calcium accumulation / mineralization (Alizarin red staining)” value with iPS and ES cells (20 μmol·L^−1 resveratrol in osteogenic medium, 14 days) is “significantly increased”. The “expression of Runx2, OPN and IBSP” value with iPS and ES cells (20 μmol·L^−1 resveratrol, 7 or 14 days of induction, vs without resveratrol) is recorded as “significantly higher”. For the same molecule, the “expression of Oct-4, Nanog, Klf-4, and C-Myc in grafts (quantitative RT-PCR)” value in the series with transplanted iPS cells (osteogenic medium-treated iPS cells, mice fed with resveratrol, six weeks) was “significantly suppressed”. Moreover, the “teratoma-like formation in grafts” value with transplanted iPS cells (osteogenic medium-treated iPS cells, resveratrol 7.5 μg/ml in drinking water, six weeks) is recorded as “No teratoma-like formation”. For the same molecule, in the series with transplanted iPS cells (resveratrol 7.5 μg/ml in drinking water daily, six weeks after transplantation, vs vehicle), the “expression of OPN in grafts (immunofluorescence)” value is “significantly higher”.

(Values after US8183297B2 (Taipei Veterans General Hospital, priority 2008, dated 2012).)
